We go through ten compounds from patent US7759356B2, “Arylindenopyridines and arylindenopyrimidines and related therapeutic and prophylactic methods” (Janssen Pharmaceutica, N.V., priority 2002, dated 2010).

Broadly, the Ki is the dissociation constant of the complex between target and ligand, obtained from inhibition or displacement.

One assay concerns the target T1, A1 (Homo sapiens, UniProt P30542).
T1 sequence (P30542 1-326): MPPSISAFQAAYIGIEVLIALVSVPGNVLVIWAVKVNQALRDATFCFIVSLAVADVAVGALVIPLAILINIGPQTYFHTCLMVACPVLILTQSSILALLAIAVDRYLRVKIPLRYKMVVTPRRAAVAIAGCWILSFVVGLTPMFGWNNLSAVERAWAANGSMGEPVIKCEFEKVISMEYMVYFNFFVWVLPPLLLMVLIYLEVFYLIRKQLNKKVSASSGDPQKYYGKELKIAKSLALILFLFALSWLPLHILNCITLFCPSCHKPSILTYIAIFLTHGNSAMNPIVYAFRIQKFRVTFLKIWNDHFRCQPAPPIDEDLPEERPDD
As to the kind of experiment: A1 antagonist function. It counts as cell-based.

In assay [1] the target is T2, human A2a adenosine receptor (Homo sapiens, UniProt P29274).
T2 construct: purchased PerkinElmer RB-HA2a; host or cells: HEK293 cell plasma membranes
T2 sequence (P29274 whole entry): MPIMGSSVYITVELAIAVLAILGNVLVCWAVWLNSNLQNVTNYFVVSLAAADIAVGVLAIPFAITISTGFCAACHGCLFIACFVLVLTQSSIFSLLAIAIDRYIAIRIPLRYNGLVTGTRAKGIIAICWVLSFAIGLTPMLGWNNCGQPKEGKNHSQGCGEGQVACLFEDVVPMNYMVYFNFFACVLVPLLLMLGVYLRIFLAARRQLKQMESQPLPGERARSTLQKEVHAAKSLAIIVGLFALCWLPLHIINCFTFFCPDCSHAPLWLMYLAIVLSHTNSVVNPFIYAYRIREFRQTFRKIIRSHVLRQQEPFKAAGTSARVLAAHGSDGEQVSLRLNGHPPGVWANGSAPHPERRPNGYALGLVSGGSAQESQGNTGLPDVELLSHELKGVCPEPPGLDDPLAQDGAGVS
Put plainly: Ligand binding assay for adenosine A2a receptor ([3H]CGS21680, HEK293 membranes). Conditions: radioligand [3H]CGS21680, HEK293 plasma membrane. How it is done: Ligand Binding Assay for Adenosine A2a Receptor
Ligand binding assay of adenosine A2a receptor was performed using plasma membrane of HEK293 cells containing human A2a adenosine receptor (PerkinElmer, RB-HA2a) and radioligand [^3H]CGS21680 (PerkinElmer, NET1021). Assay was set up in 96-well polypropylene plate in total volume of 200 μL by sequentially adding 20 μL1:20 diluted membrane, 130 μL assay buffer (50 mM Tris.HCl, pH7.4 10 mM MgCl2, 1 mM EDTA) containing [^3H] […] Nonspecific binding was determined by […] NECA. Reaction was carried out at room temperature for 2 hours before filtering through 96-well GF/C filter plate pre-soaked in 50 mM Tris.HCl, pH7.4 containing 0.3% polyethylenimine. Plates were then washed 5 times with cold 50 mM Tris.HCl, pH7.4, dried and sealed at the bottom. Microscintillation fluid 30 μl was added to each well and the top sealed. Plates were counted on Packard Topcount for [^3H]. Data was analyzed in Microsoft Excel and GraphPad Prism programs.

The target of assay [2] is T3, human adenosine A2a receptors (Homo sapiens, UniProt P29274).
T3 construct: expressed in transfected cells; host or cells: CHO-K1 cells with cAMP-inducible beta-galactosidase reporter gene
T3 sequence (P29274 whole entry): as above
As to the kind of experiment: Adenosine A2a receptor functional assay (antagonist mode, cAMP-inducible beta-galactosidase reporter, CHO-K1 cells, 50 nM NECA). The assay is classed as cell-based. Conditions: read-out: Ki A2a antagonist function. How it is done:
Adenosine A2a Receptor Functional Assay
CHO—K1 cells overexpressing human adenosine A2a receptors and containing cAMP-inducible beta-galactosidase reporter gene were seeded at 40-50K/well into 96-well tissue culture plates and cultured for two days. On assay day, cells were washed once with 200 μL assay medium (F-12 nutrient mixture/0.1% BSA). For agonist assay, adenosine A2a receptor agonist NECA was subsequently added and cell incubated at 37° C., 5% CO2 for 5 hrs before stopping reaction. In the case of antagonist assay, cells were incubated with antagonists for 5 minutes at R.T. followed by addition of 50 nM NECA. Cells were then incubated at 37° C., 5% CO2 for 5 hrs before stopping experiments by washing cells with PBS twice. 50 μL 1× lysis buffer (Promega, 5× stock solution, needs to be diluted to 1× before use) was added to each well and plates frozen at −20° C. For β-galactosidase enzyme colorimetric assay, plates were thawed out at room temperature and 50 μL 2× assay buffer (Promega) added to each well. Color was allowed to develop at 37° C. for 1 h or until reasonable signal appeared. Reaction was then stopped with 150 μL 1M sodium carbonate. […] Data was analyzed in Microsoft Excel and GraphPad Prism programs.

As to `Nc1nc(-c2ccco2)c2c(n1)-c1cccc(N)c1C2=O` [Compound 20], the figures for the Ki (at A1; in assay [1]; in assay [2]) were 0.91 nM, 0.05 nM and 0.126 nM, respectively. In assay [1], `COc1ccc(-c2nc(N)nc3c2C(=O)c2ccccc2-3)cn1` [Compound 30] registered an inhibition constant (Ki) of 31.6 nM. In the case of `CC(O)C(O)c1cccc2c1-c1nc(N)nc(-c3ccccc3)c1C2=O` (stereo not drawn) [Compound 33], the Ki at A1 is 0.021 nM; in assay [1], 0.175 nM; in assay [2] it was 0.34 nM. On to `CS(=O)(=O)c1nc(N)nc2c1C(=O)c1ccccc1-2` [Compound 40, 2-Amino-4-methanesulfonyl-indeno[1,2-d]pyrimidin-5-one], for which, in assay [1], affinity was put at a Ki of 2720 nM. Regarding `CN1CCN(Cc2cccc3c2C(=O)c2c(-c4ccccc4)nc(N)nc2-3)CC1` [Compound 50], in assay [1], the inhibitory constant (Ki) came to 80.2 nM.

In the case of `Nc1nc(-c2ccccc2)c2c(n1)-c1cccc(CN3CCN(CCO)CC3)c1C2=O` [Compound 58], the inhibition constant (Ki) was determined as 61 nM on A1, 30.6 nM in assay [1] and 11.7 nM in assay [2].

On A1, `CN(C)CCN(C)C(=O)c1c(N)nc(-c2ccco2)c2c1-c1ccccc1C2=O` [Compound 77, 9H-indeno[2,1-c]pyridine-4-carboxylic acid, 3-amino-1-furan-2-yl-9-oxo-, (2-dimethylamino-ethyl)-methyl-amide] showed a Ki greater than 500 nM. On to `CC(CN(C)C)NC(=O)c1c(N)nc(-c2ccco2)c2c1-c1ccccc1C2=O` (stereo not drawn) [Compound 78, 9H-indeno[2,1-c]pyridine-4-carboxylic acid, 3-amino-1-furan-2-yl-9-oxo-, (2-dimethylamino-1-methyl-ethyl)-amide], for which the Ki on A1 was greater than 500 nM. As for `CN(C)CCOC(=O)c1c(N)nc(-c2ccsc2)c2c1-c1ccccc1C2=O` [Compound 93], the affinity in assay [1], expressed as Ki, was 64 nM. With `C[C@@H](CN(C)C)OC(=O)c1c(N)nc(-c2ccco2)c2c1-c1ccccc1C2=O` [Compound 96], the Ki on A1 was determined as 52.5 nM; in assay [1] it was 48.5 nM; in assay [2], 10.1 nM.
